Earlier results on 31 compounds are cited in US7517693B2, “Method and apparatus for determining a molecular descriptor of absorption for a candidate compound” (North Carolina State University, priority 2002, dated 2009).

The conditions of the first series: Table IV study compounds.
As for `Nc1ccc(C(=O)O)cc1` [4-aminobenzoic acid], the logKo/w is listed as 0.83.

For the compound `COc1cc(Cl)c(OC)cc1Cl` [Chloroneb], the logKo/w is recorded as 3.44.

As to `CNC(=O)Oc1cccc2ccccc12` [Carbaryl], the logKo/w was 2.36.

Turning to `ClC1=C(Cl)C2(Cl)C3C4OC4C(Cl)C3C1(Cl)C2(Cl)Cl` (centres unmarked) [heptachlor epoxide], the logKo/w is recorded as 4.98.

Regarding `COc1ccc(C(c2ccc(OC)cc2)C(Cl)(Cl)Cl)cc1` [Methoxychlor], the logKo/w was 5.08.

Take Nonylphenol: the logKo/w is 5.99.

With `CCCCCCCCCCCCN1CCCCCC1=O` [Laurocapram], the logKo/w was 6.28.

For the compound `Cc1cccc(C)c1` [m-xylene], the logKo/w is on record as 3.20.

For `Cc1cccc(O)c1` [m-cresol], the logKo/w is reported as 1.95.

On to `CCCCI` [Compound 1-iodobutane, 1-iodobutane], for which the logKo/w is given as 3.08.

For `c1ccc2cc3ccccc3cc2c1` [Anthracene], the logKo/w is given as 4.45.

Consider `CCOP(=S)(OCC)Oc1ccc([N+](=O)[O-])cc1` [Parathion], for which the logKo/w is given as 3.83.

On to `O=[N+]([O-])c1ccc(O)cc1` [4-Nitrophenol], for which the logKo/w is 1.91.

As for `Cl[C@H]1[C@H](Cl)[C@@H](Cl)[C@@H](Cl)[C@H](Cl)[C@H]1Cl` [Lindane], the logKo/w is reported as 3.72.

On to `c1ncncn1` [1,3,5-triazine], for which the logKo/w was −1.17.

For `COC(=O)c1ccccc1O` [methyl salicylate], the logKo/w was 2.55.

For the compound `Nc1ccccc1` [Aniline], the logKo/w is 0.90.

In the case of `CCC[N+](=O)[O-]` [1-nitropropane], the logKo/w was 0.87.

Take `Oc1cccc(O)c1` [Resorcinol]: the logKo/w was 0.8.

In the case of `CCNc1nc(Cl)nc(NC(C)C)n1` [Atrazine], the logKo/w was 2.61.

As to `O=C(O)c1ccccc1O` [salicylic acid], the logKo/w was 2.26.

`COC(=O)c1cccnc1` [methyl nicotinate]: the logKo/w is 0.64.

Take `CCOC(=O)C(O)(c1ccc(Cl)cc1)c1ccc(Cl)cc1` [Chlorobenzilate]: the logKo/w was 4.74.

`CC12CCC(CC1)C(C)(C)O2` [1,8-cineole]: the logKo/w is 2.74.

Regarding `C1COCCO1` [1,4-dioxane], the logKo/w is reported as −0.27.

Turning to `O=S1OCC2C(CO1)C1(Cl)C(Cl)=C(Cl)C2(Cl)C1(Cl)Cl` (centres unmarked) [endosulfan II], the logKo/w is 3.83.

`CC(=O)CC(C)C` [4-methyl-2-pentanone]: the logKo/w is 1.31.

On to `CCCC(C)=O` [Compound 2-pentanone, 2-pentanone], for which the logKo/w was 0.91.

As for `COC(=O)c1c(Cl)c(Cl)c(C(=O)OC)c(Cl)c1Cl` [Dacthal], the logKo/w is listed as 4.28.

The conditions of a further series: Table III calibration compounds; 25° C.; known literature descriptor.
On to `O=[N+]([O-])c1ccc(O)cc1` [4-Nitrophenol], for which the “logL^16 (solute gas-hexadecane partition coefficient)” value was 5.876.

Consider `OCc1ccccc1` [Benzyl alcohol], for which the “logL^16 (solute gas-hexadecane partition coefficient)” value is 4.221.

`ClCCl` [Dichloromethane]: the “logL^16 (solute gas-hexadecane partition coefficient)” value is 2.019.

The series is the same for the next values; noted with them: Table III calibration compounds; known literature descriptor.
On to `O=[N+]([O-])c1ccc(O)cc1` [4-Nitrophenol], for which the “α (effective solute H-bond acidity)” value is 0.82; the “β (effective solute H-bond basicity)” value was 0.26; the “π (effective solute dipolarity and polarizability)” value was 1.72.

Turning to `OCc1ccccc1` [Benzyl alcohol], the “α (effective solute H-bond acidity)” value is 0.33; the “β (effective solute H-bond basicity)” value is 0.56; the “π (effective solute dipolarity and polarizability)” value is recorded as 0.87.

For `ClCCl` [Dichloromethane], the “α (effective solute H-bond acidity)” value was 0.10; the “β (effective solute H-bond basicity)” value is reported as 0.05; the “π (effective solute dipolarity and polarizability)” value is on record as 0.57.
